For data set [1], the system named is HM7 (human colon carcinoma cell line). Briefly: Growth of HM7 cancer cells in vitro (tetrazolium dye). The class given is cell-based. The settings on record: 5×10^3 cells/well. The text has this:
In order to conduct an experiment concerning the metastasis of cancer cells to the liver, cancerous cells were transplanted into the spleen. In this regard, after being anesthetized with diethyl ether, 4-week-old male mice (athymic nude mice, BALB/c/nu/nu, Charles River, Japan) underwent flank incision. […] Four weeks after the injection, the liver was excised from each mouse and measured for weight and the size and number of metastatic nodules formed. Each test group was composed of 6-7 mice. In a student's t-test, a p value less than 0.05 was regarded as being statistically significant. In the test using tetrazolium dye (cell titer 96 Non-radioactive Proliferation Assay Kit, Promega), each peptide was evaluated to have no influence on the growth of the cancer cells (5×10^3 cells/well), so that the possibility that the toxicity of the peptide themselves might inhibit the growth and metastasis of cancer cells could be excluded.

Data set [2] concerns egg CAM (chorioallantoic membranes). Briefly: Egg CAM assay, angiogenesis induced by VEGF. The class given is in vivo. Particulars: VEGF 10 ng/egg alone or with 1 μg sample; for Angiogenic activity(%): (standard deviation). As for the experimental part:
Fertilized eggs (Pulmuwon, Korea) were incubated at 37° C. under a humidity of 90%. After three days of culturing, the eggs were deprived of about 2 ml of albumin. After four days, eggs were partially deprived of the sheath to make a window with a size of 2×2 cm.
After VEGF (10 ng/egg) was mixed with various amounts of peptides or other samples, 3 μl of each mixture was dropped onto ¼ fraction pieces of thermanox coverslips (Nunc) and dried. The pieces were placed on CAM of 9-day embryonic eggs.
Two days later, the samples were independently observed under anatomical microscopes by two different persons to determine whether new blood vessels are induced by the dropped samples or not. In this regard, the experiment was repeated at least three times using 10 or more eggs per sample and the results are given in Table 5, below.

A short description of data set [3]: Acute toxicity test on rat upon non-oral administration. The class given is in vivo. The settings on record: 1 mg/kg, intramuscular injection; for LD50: rat, in vivo, im, SD rats, read-out: lethal dose (LD50). As for the experimental part:
Using specific pathogen-free (SPF) SD rats which were six weeks old, the peptides of Sequences 1, 2, and 3 were tested for acute toxicity. Suspensions of the peptides in 1 ml of PBS were administered at a dose of 1 mg/kg to the rats, which were grouped in twos, by intramuscular injection. […] An autopsy was made of the rats with the naked eye to observe whether their abdominal and thoracic organs were damaged. Neither sudden death nor noticeable clinical symptoms were detected in any of the animals administered with the peptides of interest.

The test system of data set [4] is VEGF-induced DNA synthesis of HUVEC. Briefly: VEGF-induced DNA synthesis of HUVEC ([methyl-3H] thymidine). Particulars: FIG. 10a. The class given is cell-based, human. As for the experimental part: In a gelatin-coated 48-well plate (Nunc) HUVEC were cultured at a density of 10^4 cells/well at 37° C. for one day, followed by washing the cells three times with serum-free medium 199. After being added with culture media containing VEGF (10 ng/ml, R&D systems) and various concentrations of the screened peptides, the cells were cultured at 37° C. After 24 hours of culturing, the cells were added with [methyl-^3H] thymidine (0.5 μCi/well) and cultured for an additional one day. Before quantification of the radioactivity used for the DNA synthesis with the aid of a liquid scintillation counter, the cells were washed with PBS containing 0.1% albumin, treated with 0.4 N NaOH at room temperature for 20 min for cell lysis, and neutralized with 2 N HCl. In order to determine the toxicity of the peptides, HUVEC were examined as in above using excess peptide (100 μM) in the absence of VEGF.

The next data set concerns the target T1, VEGF (Homo sapiens, UniProt P15692).
T1 sequence (P15692 27-191 isoform P15692-4): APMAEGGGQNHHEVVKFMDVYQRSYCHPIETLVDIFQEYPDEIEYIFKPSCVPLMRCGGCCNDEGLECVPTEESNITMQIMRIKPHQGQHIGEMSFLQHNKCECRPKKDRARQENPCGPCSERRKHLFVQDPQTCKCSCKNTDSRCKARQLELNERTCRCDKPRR
Briefly: Inhibition of 125I-labeled VEGF binding to its receptors on HUVEC. Particulars: for IC50: HUVEC, peptides at 1, 4, 10 and 20 μM/sequence (FIG. 5). As for the experimental part:
Then, the cells were transferred to a medium (Medium 199/25 mM HEPES, pH 7.4/0.1% bovine serum albumin) containing 0.2 ng of ^125I-labeled VEGF and various concentrations of peptides or combinatorial peptide libraries and reacted at 4° C. for 3 hours. The cells were washed twice with the same medium and once with PBS containing 0.1% albumin to remove the labeled VEGF which still remained uncombined. Thereafter, to quantify the labeled VEGF which bound to receptors present on the surface of the vascular endothelial cells, the cells were treated with 0.5 ml of a lysis solution (20 mM Tris-HCl, pH 7.4/1% TritonX-100) for 20 min, followed by measuring the resulting lysate for radioactivity with the aid of a γ-counter.
The sequence of each peptide was indirectly decided through the analysis of amino acid compositions and its concentration was determined, after which 12 peptides were assayed for antagonism toward VEGF binding at various concentrations (1, 4, 10, and 20 μM/sequence).

Data set [5] deals with HT1080 (human fibrosarcoma). Briefly: Egg CAM assay, angiogenesis induced by VEGF-secreting cancer cells. The class given is in vivo. The settings on record: for effect on angiogenesis induced by VEGF secreted from human cancer cells: FIG. 12; for Angiogenic activity eggs/total eggs / Angiogenic activity(%): egg CAM, 10^5 HT1080 cells/egg with 0.1 μg peptide; for Angiogenic activity(%): (standard deviation). As for the experimental part: An experiment using egg CAM was carried out to confirm the inhibitory activity of the screened peptides against the angiogenesis induced by cancer cells, which secrete VEGF. Fertilized eggs were deprived of albumin and windows were formed on the eggs as in above. 10^5 cells of HT1080 (human fibrosarcoma) were mixed with 7.5 μg of Type I collagen (rat tail, Beckton Dickinson, USA) within a volume of 5 μl and dropped onto ¼ fraction pieces of Thermanox coverslips to give collagen sponges. After being covered with the collagen sponges, 10-day embryonic egg CAM was incubated at 37° C. for 3 days. Blood vessels induced by the cancer cells were observed and photographed as in above (see Table 6 and FIG. 12).

In general, LD50 refers to the dose expected to kill half of the subjects tested. As usually defined, the IC50 is the concentration needed to halve the response being measured. High values mean weaker potency in that assay, low ones greater potency in that assay. As for “H-RRKRRR-NH2 [compound 8, NH2-Arg-Arg-Lys-Arg-Arg-Arg-CONH2]”, the “influence on growth of the cancer cells / cytotoxicity to human colon carcinoma cells” value in data set [1] is reported as “damage neither”. Moreover, in data set [2], the “Angiogenic activity eggs/total eggs” value is on record as 4/26 and the “Angiogenic activity(%)” value is 15.6(5.1) %. Moreover, in data set [3], the “toxic changes to the rats” value was “no toxic changes” and the LD50 is not below 1 mg/kg. Besides, the “inhibition of VEGF-induced growth of vascular endothelial cells” value (“inhibition … of vascular endothelial cells” below) in data set [4] is recorded as “inhibit the VEGF-induced growth of vascular endothelial cells in a dose-dependent pattern”. The same molecule registered an IC50 on VEGF of 2 µM. Besides, the “inhibition of binding of labeled VEGF165 to its receptors” value at VEGF (recombinant labeled VEGF165, FIG. 9) is reported as “inhibited”. In addition, in data set [5], the “effect on angiogenesis induced by VEGF secreted from human cancer cells” value (“effect on angiogenesis induced” below) is recorded as “inhibitory effect”, the “Angiogenic activity eggs/total eggs” value is reported as 8/22 and the “Angiogenic activity(%)” value was 36.0(8.5) %.

On to “H-RKKRKR-NH2 [compound 1, NH2-Arg-Lys-Lys-Arg-Lys-Arg-CONH2]”, for which the “influence on growth of the cancer cells / cytotoxicity to human colon carcinoma cells” value in data set [1] is reported as “damage neither”. For the same molecule, in data set [2], the “Angiogenic activity eggs/total eggs” value is on record as 4/26 and the “Angiogenic activity(%)” value is recorded as 15.6(4.5) %. Also, in data set [3], the “toxic changes to the rats” value is on record as “no toxic changes” and the LD50 is not below 1 mg/kg. For the same molecule, the “inhibition … of vascular endothelial cells” value in data set [4] is on record as “inhibit the VEGF-induced growth of vascular endothelial cells in a dose-dependent pattern”. The molecule further returned an IC50 on VEGF of 3.4 µM. In data set [5], the “effect on angiogenesis induced” value is on record as “inhibitory effect”, the “Angiogenic activity eggs/total eggs” value was 10/23 and the “Angiogenic activity(%)” value is recorded as 43.0(9.9) %.

For the molecule `N=C(N)NCCC[C@H](NC(=O)[C@H](CCCNC(=N)N)NC(=O)[C@H](CCCNC(=N)N)NC(=O)[C@H](CCCNC(=N)N)NC(=O)[C@H](CCCNC(=N)N)NC(=O)[C@@H](N)CCCNC(=N)N)C(N)=O` [compound 11, NH2-Arg-Arg-Arg-Arg-Arg-Arg-CONH2], the “influence on growth of the cancer cells / cytotoxicity to human colon carcinoma cells” value in data set [1] was “damage neither”. In data set [2], the “Angiogenic activity eggs/total eggs” value is on record as 4/26 and the “Angiogenic activity(%)” value is given as 15.6(5.1) %. Moreover, in data set [3], the “toxic changes to the rats” value is “no toxic changes” and the LD50 was not below 1 mg/kg. The “inhibition … of vascular endothelial cells” value in data set [4] is listed as “inhibit the VEGF-induced growth of vascular endothelial cells in a dose-dependent pattern”. At VEGF, this molecule gave an IC50 of 3.8 µM. Moreover, in data set [5], the “effect on angiogenesis induced” value is “inhibitory effect”, the “Angiogenic activity eggs/total eggs” value is on record as 10/24 and the “Angiogenic activity(%)” value is recorded as 41.0(7.1) %.

For the origin of these results see patent US7291601B1, “Arginine-rich anti-vascular endothelial growth factor peptides that inhibit growth and metastasis of human tumor cells by blocking angiogenesis” (Korea Greencross Corp., priority 1999, dated 2007).
